Experimental data: US6001818A, “Use of 2',3'-dideoxycytidin-2'-ene (2'- ,3'-dideoxy-2'3'-didehydrocytidine) in treating patients infected with retroviruses” (Yale University, priority 1991, dated 1999)

What was measured:
[1] = tested on: Moloney Murine Leukemia Virus; assay: Antiviral screening against Moloney Murine Leukemia Virus (M-MuLV) by XC-assay (plaque reduction, SC-1 cells); assay type: cell-based; details: SC1, SC-1/XC cells, Reed-Muench Method, read-out: ID50 (median inhibitory dose, virus plaque number)
From the text: Assay Procedure For Antiviral […] Against Moloney Murine Leukemia Virus (M-MuLV) By XC-Assay: The XC assay system is an indirect method for quantitation of murine-leukemia virus (MULV) originally described by […] et al, Proc. Nat'l. Acad Sci., 63, 753-758, (1969) and modified by W. Rowe et al, Virology, 42, 1136-1139, (1970). This test is based on the development of syncytial changes in the XC cell line when it is co-cultivated with mouse fibroblast cells (SC-1 cells) productively infected with MULV. The XC cell line was derived from a rat tumor induced by the Prague strain of Rous Sarcoma Virus (RSV) (J. Svobada et al, Folia Biol., 9, 77-81, […]). […] The following day, the cells were inoculated with 0.5 mL of a virus dilution containing 25 μg/mL of DEAE-dextran. […] The virus inoculum was then removed and replaced with 5mL of medium containing appropriate concentration of the test compound (two dishes/concentration). […] The medium (with or without the test compound) was changed at 48 hours. Five days after virus inoculation, the culture fluid was decanted and the cells were irradiated with a "GE" germicidal bulb for 30 seconds (60 ergs/mm^2 /sec UV-light). […] Virus plaques (i.e., areas of the cell sheet containing syncytial cells or focal masses of multinucleated giant cells) were counted using an inverted microscope.

HTLV-III/LAV [2] = assay: Fluorescent assay of inhibition of HTLV-III/LAV in MT-2 cells (monoclonal antibody αp18); assay type: cell-based; details: day 7 post-infection
HTLV-III/LAV [3] = assay: Inhibition of HTLV-III/LAV cytopathic effect in MT-2 cells (visual inspection); assay type: cell-based; details: for % Apparent CPE (destroyed cells / total cells scored): MT-2 cells, day 7 post-infection
MT-2 cells = assay: Viability of HTLV-III/LAV-infected MT-2 cells (trypan blue exclusion); assay type: cell-based; details: Homo sapiens, MT2, 168 h, day 7 post-infection, read-out: % Viable Cells (cells that excluded trypan blue / cells scored)
[4] = Water solubility (compared with AZT); assay type: physicochemical; details: compared with 3'-azido-3'-deoxythymidine (AZT)
[5] = tested on: retroviruses, e.g., murine leukemia virus and HTLV III/LAV virus; assay: Antiviral activity against retroviruses (general statement); assay type: cell-based; details: murine leukemia virus and HTLV III/LAV virus (the AIDS virus)
HTLV-III/LAV virus = details: Mitsuya and Broder, supra; cited from earlier work

In the case of Nc1ccn([C@H]2C=C[C@@H](CO)O2)c(=O)n1 [2',3'-dideoxycytidin-2'-ene], the IC50 [1] is reported as 3.7 µM, the “% Fluoresence (fluorescent cells / total cells scored)” value (HTLV-III/LAV [2]; 0.5 μM) is reported as 5.6 ± 5.5% and the “% Fluoresence (fluorescent cells / total cells scored)” value (HTLV-III/LAV [2]; 1.0 μM) is reported as 1.1 ± 0.1%. The “% Apparent CPE (destroyed cells / total cells scored)” value (HTLV-III/LAV [3]; 0.5 μM) was 90 ± 0.0%, the “% Apparent CPE (destroyed cells / total cells scored)” value (HTLV-III/LAV [3]; 1.0 μM) was 0.5 ± 0.5% and the “effective dose compared with 2',3'-dideoxycytidine” value (HTLV-III/LAV [3]; HTLV-III/LAV infection in vitro, conclusion from Table 2 data) was “effective dose falls in the same range as 2',3'-dideoxycytidine”. The “antiviral activity against HTLV-III/LAV infection in vitro” value (HTLV-III/LAV [3]; conclusion from Table 2 data) was “has antiviral activity against the HTLV-III/LAV infection in vitro”, the viability at 0.5 µM (MT-2 cells) was 22% and the viability at 1 µM (MT-2 cells) was 90%. For the same compound, the water solubility [4] was “much better water solubility than that of 3'-azido-3'-deoxythymidine (AZT)” and the “antiviral activity against retroviruses” value [5] was “has antiviral activity against retroviruses”.
In the case of Nc1ccn([C@H]2CC[C@@H](CO)O2)c(=O)n1 [2',3'-dideoxycytidine, reference compound], the IC50 [1] is reported as 4 µM, the “% Fluoresence (fluorescent cells / total cells scored)” value (HTLV-III/LAV [2]; 0.5 μM) is reported as 4.3 ± 0.3% and the “% Fluoresence (fluorescent cells / total cells scored)” value (HTLV-III/LAV [2]; 1.0 μM) is reported as 0.2 ± 0.1%. For the same compound, the “% Apparent CPE (destroyed cells / total cells scored)” value (HTLV-III/LAV [3]; 0.5 μM) was 40 ± 10%, the “% Apparent CPE (destroyed cells / total cells scored)” value (HTLV-III/LAV [3]; 1.0 μM) was 1.0 ± 0.0% and the viability at 0.5 µM (MT-2 cells) was 75%. The viability at 1 µM (MT-2 cells) was 96% and the “potency against HTLV-III/LAV virus in culture” value (HTLV-III/LAV virus) was “known potent compound against HTLV-III/LAV virus in culture”.
